Data as given in PMC12526004, “Tiliroside Suppresses Uric Acid Production in Hepatocytes and Attenuates Purine-Induced Hyperuricemia in Male ICR Mice” (Molecules, 2025).

Experiments:
XO = settings: read-out: IC50, XO inhibition (previous report); cited from earlier work
AML12 hepatocytes [1] = assay: UA production by AML12 cells stimulated with UA precursors; format: cell-based; settings: for maximum reduction of UA production: guanosine + inosine (GI mixture) 100 µM each, vs control (0 µM); for UA production: UA precursor xanthine
Procedure: AML12 hepatocytes used in this study were acquired from ATCC (CRL-2254), Manassas, VA, USA. AML12 cells were maintained in DMEM/F-12 (Life Technologies, Grand Island, NY, USA) supplemented with 10% (v/v) fetal bovine serum (FBS; Hyclone, Logan, UT, USA), recombinant human insulin (5 µg/mL), human transferrin (5 µg/mL), and dexamethasone (40 ng/mL), each obtained from FUJIFILM Wako, as well as selenium (3 ng/mL, Sigma-Aldrich) and penicillin–streptomycin mixed solution (100 U/mL penicillin and 100 µg/mL streptomycin, Nacalai Tesque), under a humidified atmosphere of 5% CO2 at 37 °C. Culture of AML12 hepatocytes and measurement of UA production were conducted following a previously reported protocol.Cells were seeded at a density of 1.0 × 10^5 cells per well in 24-well plates and cultured for 72 h in complete medium, followed by 24 h in serum-free DMEM/F-12. After serum deprivation, cells were rinsed once with calcium- and magnesium-free phosphate-buffered saline [PBS (–)] and incubated in 200 µL of balanced salt solution (BSS) containing […], 5 mM KCl, 1 mM MgCl2, 0.8 mM CaCl2, 25 mM NaHCO3, 1 mM NaH2PO4, 10 mM HEPES, and 5 mM glucose. […] The final concentration of DMSO in all samples was adjusted to 0.15%. After a 2-h incubation, 200 µL of the reaction mixture was collected for UA quantification. The UA concentration in BSS was used as an indicator of UA production. Subsequently, cells were washed with PBS (–) and lysed in 300 µL of buffer containing 50 mM Tris and 1 mM sodium phosphate (pH 7.5). Lysates were sonicated and centrifuged (12,000× g, 5 min, 4 °C), and the supernatants were used for protein quantification using the Pierce™ BCA Protein Assay Kit (Thermo Fisher Scientific Inc., Waltham, MA, USA). UA levels were measured using the uricase-based Uric Acid C-Test Wako (FUJIFILM Wako). UA production was expressed as nanomoles per 2 h per milligram of cellular protein (nmol/2 h/mg protein).

AML12 hepatocytes [2] = assay: Cell viability, WST-8 assay; format: cell-based; settings: concentrations up to 100 µM, 2 h
Procedure: The viability of AML12 cells was determined using the WST-8 assay provided in the Cell Counting Kit-8 (Dojindo Laboratories, Kumamoto, Japan). Cells were initially seeded at 5 × 10^3 cells per well in 96-well plates and maintained in DMEM/F-12 medium containing 10% (v/v) FBS for 72 h. To induce serum deprivation, the medium was replaced with serum-free DMEM/F-12, and cells were incubated for an additional 24 h. […] The treatment lasted for 2 h. Subsequently, cells were washed again with BSS and incubated with the WST-8 reagent for 1 h. Absorbance was measured at 490 nm using a microplate reader (MTP-310Lab; CORONA […] Co., Ltd., […], Japan). Cell viability was normalized to the DMSO control (0 μM), which was set at 100%.

[3] = molecular target: xanthine oxidase (bovine milk-derived) (Bos taurus, UniProt P80457); assay: XO inhibition assay in vitro (UV absorbance at 295 nm); format: biochemical; settings: xanthine substrate, 37 °C, mean of three independent experiments, read-out: IC50, direct XO inhibitory activity
Chain of xanthine oxidase (bovine milk-derived) (P80457 whole entry): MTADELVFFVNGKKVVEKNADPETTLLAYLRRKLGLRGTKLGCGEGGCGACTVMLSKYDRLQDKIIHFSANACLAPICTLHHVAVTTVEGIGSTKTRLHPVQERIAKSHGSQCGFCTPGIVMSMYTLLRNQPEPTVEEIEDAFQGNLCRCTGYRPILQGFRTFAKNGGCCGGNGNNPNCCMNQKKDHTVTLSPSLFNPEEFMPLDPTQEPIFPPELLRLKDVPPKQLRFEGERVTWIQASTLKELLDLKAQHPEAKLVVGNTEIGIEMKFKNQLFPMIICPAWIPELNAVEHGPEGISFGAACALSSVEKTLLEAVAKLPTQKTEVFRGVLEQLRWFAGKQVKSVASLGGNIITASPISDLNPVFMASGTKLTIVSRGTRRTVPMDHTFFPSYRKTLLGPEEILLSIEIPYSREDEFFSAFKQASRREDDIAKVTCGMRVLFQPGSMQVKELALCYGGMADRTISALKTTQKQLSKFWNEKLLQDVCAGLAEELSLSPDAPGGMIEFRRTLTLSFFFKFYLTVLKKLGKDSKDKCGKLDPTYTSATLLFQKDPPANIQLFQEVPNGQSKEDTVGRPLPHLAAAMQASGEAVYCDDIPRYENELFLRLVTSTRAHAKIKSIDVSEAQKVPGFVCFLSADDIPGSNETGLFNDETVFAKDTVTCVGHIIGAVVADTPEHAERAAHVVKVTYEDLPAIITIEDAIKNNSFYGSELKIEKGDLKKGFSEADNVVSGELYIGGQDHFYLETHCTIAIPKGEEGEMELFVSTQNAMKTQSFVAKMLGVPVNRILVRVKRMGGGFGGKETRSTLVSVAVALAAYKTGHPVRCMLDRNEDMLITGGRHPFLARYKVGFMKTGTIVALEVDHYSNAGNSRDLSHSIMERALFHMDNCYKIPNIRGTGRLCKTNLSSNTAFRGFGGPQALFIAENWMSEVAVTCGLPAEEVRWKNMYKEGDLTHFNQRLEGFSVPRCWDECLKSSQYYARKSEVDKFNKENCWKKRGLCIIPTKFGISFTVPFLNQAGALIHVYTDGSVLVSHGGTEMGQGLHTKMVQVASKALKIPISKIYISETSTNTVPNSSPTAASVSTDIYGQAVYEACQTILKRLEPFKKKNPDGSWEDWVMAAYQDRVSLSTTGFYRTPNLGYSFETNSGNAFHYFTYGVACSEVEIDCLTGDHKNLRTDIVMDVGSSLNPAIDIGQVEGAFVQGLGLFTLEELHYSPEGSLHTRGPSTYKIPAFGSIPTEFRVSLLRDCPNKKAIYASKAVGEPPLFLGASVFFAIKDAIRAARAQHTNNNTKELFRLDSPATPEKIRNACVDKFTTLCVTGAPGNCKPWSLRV
Procedure: Prior to the assay, the compounds were freshly dissolved in a mixture of 30% dimethyl sulfoxide (DMSO; FUJIFILM Wako) and 70% phosphate buffer (100 mM, pH 7.5) to prepare test solutions at final concentrations ranging from 0 to 100 µM. In each well of a 96-well microplate, 50 µL of the test solution was mixed with 60 µL of buffer and 30 µL of xanthine oxidase (7.8 mU/mL, bovine milk-derived; Sigma-Aldrich). After preincubation at 37 °C for 10 min, the reaction was initiated by adding 60 µL of xanthine substrate (150 µM; FUJIFILM Wako). Absorbance at 295 nm was monitored for 30 min at 37 °C using a Spark 10 M microplate reader (Tecan Group Ltd., Männedorf, Switzerland). XO inhibitory activity was expressed as percentage inhibition, calculated using the formula Inhibition (%) = 100 × [1 − (B/A)], where A and B represent the absorbance increase in the absence and presence of the test compound, respectively. All measurements were performed in triplicate.
All experimental data are presented as mean ± SEM. […] Data from the in vitro XO inhibition assay are shown as mean values from three independent experiments. IC50 values were calculated by nonlinear regression analysis using dose–response curves generated from at least six concentrations of each compound. All statistical analyses were performed using GraphPad Prism version 10 (GraphPad Software, San Diego, CA, USA).

| IC50 [3] [µM] | Structure (SMILES) | IC50 (XO) [µM] | maximum reduction of UA production (AML12 hepatocytes [1]; 100 µM, 2 h) | cytotoxic effects (cell viability) (AML12 hepatocytes [2]) | UA production (AML12 hepatocytes [1]; 10 µM) [nmol/2 h/mg protein] | UA production (AML12 hepatocytes [1]; 30 µM) [nmol/2 h/mg protein] | UA production (AML12 hepatocytes [1]; 100 µM) [nmol/2 h/mg protein] | effect on UA production (AML12 hepatocytes [1]; concentrations up to 100 µM, GI mixture, 2 h) |
| --- | --- | --- | --- | --- | --- | --- | --- | --- |
| 43 | O=c1c(O[C@@H]2O[C@H](CO)[C@@H](O)[C@H](O)[C@H]2O)c(-c2ccc(O)cc2)oc2cc(O)cc(O)c12 [Astragalin, kaempferol-3-O-glucoside] | 49.5 | approximately 13.3% | did not exhibit any cytotoxic effects |  |  |  |  |
|  | O=c1c(O)c(-c2ccc(O)cc2)oc2cc(O)cc(O)c12 [Kaempferol, kaempferol] |  | ~97.2% | did not exhibit any cytotoxic effects | 236.0 ± 7.2 | 101.1 ± 2.8 | 31.4 ± 0.5 |  |
| > 100 | O=C(O)/C=C/c1ccc(O)cc1 [p-Coumaric acid, p-coumaric acid] |  |  | did not exhibit any cytotoxic effects |  |  |  | remained unaffected |
